In ChEMBL document CHEMBL1139759, “Discovery and SAR studies of novel GlyT1 inhibitors” (Bioorg Med Chem Lett, 2007):

What was measured:
[1] = target: T1, Sodium- and chloride-dependent glycine transporter 2 (Homo sapiens, UniProt Q9Y345); assay: Inhibition of [14C]glycine reuptake at human GlyT2 expressed in BE(2)-C cells; format: cell-based
T1 sequence (Q9Y345 whole entry): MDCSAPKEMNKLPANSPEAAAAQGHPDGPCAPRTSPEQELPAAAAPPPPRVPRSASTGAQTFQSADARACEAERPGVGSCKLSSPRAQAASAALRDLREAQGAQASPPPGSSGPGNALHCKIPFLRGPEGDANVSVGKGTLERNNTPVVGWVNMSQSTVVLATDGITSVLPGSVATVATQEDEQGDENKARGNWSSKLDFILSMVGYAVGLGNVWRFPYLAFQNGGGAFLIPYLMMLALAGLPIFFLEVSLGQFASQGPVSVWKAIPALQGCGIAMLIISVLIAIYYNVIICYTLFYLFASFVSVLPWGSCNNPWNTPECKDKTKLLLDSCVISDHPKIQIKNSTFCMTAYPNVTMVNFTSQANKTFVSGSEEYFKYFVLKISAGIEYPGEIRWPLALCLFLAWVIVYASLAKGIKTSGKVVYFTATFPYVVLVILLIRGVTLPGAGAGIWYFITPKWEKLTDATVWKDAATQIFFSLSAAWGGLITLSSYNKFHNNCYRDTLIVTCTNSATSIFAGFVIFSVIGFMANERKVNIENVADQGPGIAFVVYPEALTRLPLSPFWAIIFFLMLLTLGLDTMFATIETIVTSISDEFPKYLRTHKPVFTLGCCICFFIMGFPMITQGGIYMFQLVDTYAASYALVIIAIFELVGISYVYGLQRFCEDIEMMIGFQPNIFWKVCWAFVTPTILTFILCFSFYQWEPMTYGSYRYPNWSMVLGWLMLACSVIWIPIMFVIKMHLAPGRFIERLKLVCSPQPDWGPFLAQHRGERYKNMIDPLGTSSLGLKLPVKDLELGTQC

[2] = target: T2, Sodium- and chloride-dependent glycine transporter 1 (Homo sapiens, UniProt P48067); assay: Inhibition of [14C]glycine reuptake at human GlyT1 expressed in BE(2)-C cells; format: cell-based
T2 sequence (P48067 whole entry): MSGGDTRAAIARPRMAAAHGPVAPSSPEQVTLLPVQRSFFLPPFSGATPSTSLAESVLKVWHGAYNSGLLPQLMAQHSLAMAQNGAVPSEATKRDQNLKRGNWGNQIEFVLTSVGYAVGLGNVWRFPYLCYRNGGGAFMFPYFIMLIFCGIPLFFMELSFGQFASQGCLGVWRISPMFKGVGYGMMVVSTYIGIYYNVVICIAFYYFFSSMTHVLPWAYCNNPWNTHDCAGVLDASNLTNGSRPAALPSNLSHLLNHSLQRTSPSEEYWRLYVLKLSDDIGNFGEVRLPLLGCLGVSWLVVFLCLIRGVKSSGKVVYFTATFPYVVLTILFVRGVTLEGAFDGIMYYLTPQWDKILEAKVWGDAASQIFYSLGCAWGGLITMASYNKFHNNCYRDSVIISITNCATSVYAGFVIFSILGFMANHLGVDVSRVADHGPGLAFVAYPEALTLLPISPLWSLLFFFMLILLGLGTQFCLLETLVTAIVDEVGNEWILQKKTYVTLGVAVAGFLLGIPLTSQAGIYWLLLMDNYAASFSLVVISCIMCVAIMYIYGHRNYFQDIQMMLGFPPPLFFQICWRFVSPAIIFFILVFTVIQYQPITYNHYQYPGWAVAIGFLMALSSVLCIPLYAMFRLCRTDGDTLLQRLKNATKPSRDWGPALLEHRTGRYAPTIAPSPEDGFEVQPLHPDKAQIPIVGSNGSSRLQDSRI

[3] = test system: Rattus norvegicus; assay: Increase in glycine level of Sprague-Dawley rat cerebrospinal fluid at 30 mg/kg, sc; format: functional; settings: route subcutaneous
[4] = test system: Cerebrospinal fluid; assay: Drug level in rat cerebrospinal fluid at 30 mg/kg, sc; format: ADME, organism-based; design: dose 30 mg/kg, route subcutaneous; settings: in vivo

| Compound | IC50 [1] | IC50 [2] | Drug uptake [4] | Activity [3] |
| --- | --- | --- | --- | --- |
| CN(CCOc1ccc(-c2ccccc2)cc1C1CCCCC1)CC(=O)O | > 30000 nM | 251 nM | – | – |
| CN(CCOc1ccc(-c2ccc3c(c2)OCCO3)cc1-c1cccs1)CC(=O)O | > 30000 nM | 25 nM | – | – |
| CN(CCOc1ccc(-c2ccc3c(c2)OCCO3)cc1-c1ccccc1Cl)CC(=O)O | > 30000 nM | 14 nM | – | – |
| Cc1ccccc1-c1cc(-c2ccccc2)ccc1OCCN(C)CC(=O)O | > 30000 nM | 56 nM | – | – |
| COc1ccc(-c2ccc(OCCN(C)CC(=O)O)c(C(=O)c3cccs3)c2)cc1C | > 30000 nM | 18 nM | – | – |
| COc1ccc(-c2ccc(OCCN(C)CC(=O)O)c(C(=O)c3cccs3)c2)cc1OC | > 30000 nM | 834 nM | – | – |
| CN(CCOc1ccc(-c2ccccc2)cc1-c1cccc2ccccc12)CC(=O)O | > 30000 nM | 496 nM | – | – |
| COc1ccccc1-c1cc(-c2ccccc2)ccc1OCCN(C)CC(=O)O | > 30000 nM | 351 nM | – | – |
| CN(CCOc1ccc(-c2ccc3c(c2)OCO3)cc1-c1cccs1)CC(=O)O | > 30000 nM | 34 nM | – | – |
| CN(CCOc1ccc(-c2ccc3c(c2)CCO3)cc1-c1ccccc1Cl)CC(=O)O | > 30000 nM | 13 nM | – | – |
| CN(CCOc1ccc(-c2ccccc2Cl)cc1C(=O)c1cccs1)CC(=O)O | > 30000 nM | 175 nM | – | – |
| CN(CCOc1ccc(-c2ccccc2)cc1C(=O)c1cccs1)CC(=O)O | > 30000 nM | 45 nM | 15 ng/mL | 114% |
| Cc1ccc(-c2ccc(OCCN(C)CC(=O)O)c(C(=O)c3cccs3)c2)cc1C | > 30000 nM | 76 nM | – | – |
| CN(CCOc1ccc(-c2ccccc2)cc1-c1ccccc1Cl)CC(=O)O | > 30000 nM | 53 nM | 25 ng/mL | 155% |
| CN(CCOc1ccc(-c2ccccc2)cc1Cc1ccccc1)CC(=O)O | > 30000 nM | 85 nM | – | – |
| CN(CCOc1ccc(-c2ccc3c(c2)OCO3)cc1C(=O)c1cccs1)CC(=O)O | > 30000 nM | 19 nM | – | – |
| CN(CCOc1ccc(-c2ccccc2)cc1-c1nccs1)CC(=O)O | > 30000 nM | 957 nM | – | – |
| Cc1ccc(-c2ccc(OCCN(C)CC(=O)O)c(C(=O)c3cccs3)c2)cc1 | > 30000 nM | 59 nM | – | – |
| CN(CCOc1ccc(-c2ccc(Cl)cc2)cc1C(=O)c1cccs1)CC(=O)O | > 30000 nM | 68 nM | – | – |

More lines, main results first:

| IC50 [1] | IC50 [2] | Drug uptake [4] | Compound | Activity [3] |
| --- | --- | --- | --- | --- |
| > 30000 nM | 289 nM | – | CN(CCOc1ccc(-c2ccccc2)cc1CC1CCCCC1)CC(=O)O | – |
| > 30000 nM | 27 nM | – | COc1ccc(-c2ccc(OCCN(C)CC(=O)O)c(C(=O)c3cccs3)c2)cc1 | – |
| > 30000 nM | 40 nM | – | CN(CCOc1ccc(-c2ccccc2)cc1Cc1cccs1)CC(=O)O | – |
| > 30000 nM | – | 47 ng/mL | CN(CC[C@@H](Oc1ccc(-c2ccccc2)cc1)c1ccc(F)cc1)CC(=O)O | 204% |
| > 30000 nM | 702 nM | – | CN(CCOc1ccc(C(F)(F)F)cc1C(=O)c1cccs1)CC(=O)O | – |
| > 30000 nM | 108 nM | – | CN(CCOc1ccc(-c2ccccc2)cc1-c1ccccc1F)CC(=O)O | – |
| > 30000 nM | 632 nM | – | Cc1ccccc1-c1ccc(OCCN(C)CC(=O)O)c(C(=O)c2cccs2)c1 | – |
| > 30000 nM | 45 nM | – | Cc1cccc(-c2ccc(OCCN(C)CC(=O)O)c(C(=O)c3cccs3)c2)c1 | – |
| > 30000 nM | 70 nM | 113 ng/mL | CN(CCOc1ccc(-c2ccccc2)cc1-c1cccs1)CC(=O)O | 196% |
| > 30000 nM | 70 nM | – | CN(CCOc1ccc(-c2ccccc2)cc1C(=O)C1CCCCC1)CC(=O)O | – |
| > 30000 nM | 139 nM | – | CN(CCOc1ccc(-c2ccccc2)cc1-c1ccsc1)CC(=O)O | – |
| > 30000 nM | 12 nM | – | CN(CCOc1ccc(-c2ccc3c(c2)OCO3)cc1-c1ccccc1Cl)CC(=O)O | – |
| > 30000 nM | 161 nM | – | COc1ccc(-c2ccc(OCCN(C)CC(=O)O)c(-c3cccs3)c2)cc1C | – |
| > 30000 nM | 28 nM | – | COc1ccc(-c2ccc(OCCN(C)CC(=O)O)c(-c3ccccc3Cl)c2)cc1C | – |
| > 30000 nM | 17 nM | – | CN(CCOc1ccc(-c2ccc3c(c2)CCO3)cc1-c1cccs1)CC(=O)O | – |
| > 30000 nM | 65 nM | – | CN(CCOc1ccc(-c2ccccc2)cc1C(=O)c1ccccc1)CC(=O)O | – |
| > 30000 nM | 104 nM | – | COc1cccc(-c2ccc(OCCN(C)CC(=O)O)c(C(=O)c3cccs3)c2)c1 | – |
| > 30000 nM | 965 nM | – | CN(CCOc1ccc(-c2ccccc2)cc1-c1ccc(Cl)cc1)CC(=O)O | – |
| > 30000 nM | 674 nM | – | CN(CCOc1ccc(-c2ccccc2)cc1-c1cccc(Cl)c1)CC(=O)O | – |
| > 30000 nM | 229 nM | – | CN(CCOc1ccc(-c2ccccc2)cc1-c1ccccc1)CC(=O)O | – |
| > 30000 nM | 26 nM | – | CN(CCOc1ccc(-c2cccc(Cl)c2)cc1C(=O)c1cccs1)CC(=O)O | – |
